These results are taken from patent US8426364B2, “Method of preventing progression of hypertension-induced heart failure with PKC peptides” (The Board of Trustees of the Leland Stanford Junior …, priority 0011, dated 2013).

The test system of one data set is 92 genes. Kind of data set: Real-time PCR gene expression in LV tissue. In kind it is in vivo, rat. The note with it: LV from 17-week-old rats; 92 genes examined. Here is the method:
In another study, the effects of pharmacological inhibition or activation of εPKC and olmesartan on gene expression profile was analyzed. To address the molecular differences in the protective effects induced by εPKC inhibition and olmesartan, real-time PCR was used to monitor changes in gene expression resulting from each treatment. The effects of chronic treatment (as above) with the εPKC inhibitor (TAT47-57-εV1-2), the εPKC activator (TAT47-57-ΨεRACK) or olmesartan (ARB) in LV from 17-week-old rats on the expression of 92 genes was examined. […]
Two μg of total RNA extracted from the LV tissues of each […] rat (n=6 for each group) were converted to first-strand cDNA by reverse transcription using High Capacity cDNA Archive kit (Applied Biosystems). […] The fluorescence signals were normalized to the ubiquitously expressed housekeeping gene, β-actin. Fold-changes of mRNA expression of each group compared to the LS-control were determined by comparing cycle threshold values (24). Statistical analysis was assessed by 1-way factorial ANOVA with Fisher's test. […]
On the technique in general: Quantitative PCR measures a nucleic acid by following its amplification.

The subject of data set [1] is Dahl salt-sensitive rats. Kind of data set: Histological analysis of left ventricle (Masson's trichrome, H&E). In kind it is in vivo, rat. On the procedure: For morphometric analysis, left ventricle (LV) specimens from 17-week-old rats (n=4 for each group) were fixed with 10% buffered formalin and embedded in paraffin. Several sections were prepared from each specimen and stained with either hematoxylin and eosin (H&E) for assessment of inflammation and proliferation of vascular cells, or with Masson's trichrome stain to assess the area of cardiac fibrosis using a point-counting method (22, 23).

In data set [2] the test system is Dahl salt-sensitive rats. Put plainly: Hypertension-induced heart failure rat model (survival, echocardiography, blood pressure, body weight). In kind it is in vivo. The note with it: for Systolic Wall Stress: calculated (SBP × ESD)/[4 × PWT × (1 + PWT/ESD)]; for Systolic Wall Stress / EDD (LV end-diastolic diameter) / ESD (LV end-systolic diameter) / FS (LV fractional shortening) / PWT (LV posterior wall thickness): mean ± SEM; for survival: treated for six weeks, compared to TAT control peptide. Here is the method: To determine whether εPKC plays any role in the transition to heart failure and death, HS rats were treated with the selective εPKC inhibiting peptide, TAT47-57-εV1-2 (εV1-2; 2.8 μg/kg/day using a subcutaneous Alzet pump (26)) or with saline as a control (HS-control) from the age of 11 weeks (when compensatory hypertrophy is seen) to 17 weeks (when heart failure is apparent; FIG. 1A)). Another group of hypertensive rats was treated for the same period with a common clinical treatment, the angiotensin II receptor type 1 blocker (ARB, olmesartan, Olm; 3 mg/kg/day).
Animal protocols were approved by the Stanford University Institutional Animal Care and Use Committee. Dahl salt-sensitive rats provide a reliable animal model of hypertension-induced heart failure. When placed on 8% NaCl-containing diet from the age of 6 weeks (HS rats), the rats develop compensative left ventricular hypertrophy by the age of 11 weeks, and die from heart failure when they reach 16 to 21 weeks (21, 25). Male Dahl salt-sensitive rats were fed with an 8% NaCl-containing diet (Dahl-high-salt) or with a 0.3% NaCl low salt diet (LS-control; n=25) from the age of 6 weeks onward as previously reported (3, 21). Dahl-high-salt rats were treated between the ages of 11 and 17 weeks with the selective εPKC inhibiting peptide, TAT47-57-εV1-2 (εV1-2; n=10, 2.8 μg/kg/day), with TAT47-57-εV1-1 (εV1-1; n=14, 2.8 μg/kg/day), or with saline as a control (HS-Control; n=12), using osmotic pumps implanted subcutaneously. A fourth group was treated with angiotensin II receptor type 1 blocker, olmesartan (ARB; n=12, 3 mg/kg/day in 0.5% carboxymethylcellulose) delivered by daily gavage for the same period. A fifth group was treated from 15 to 17 weeks of age with the selective εPKC activating peptide, TAT47-57-ΨεRACK (ΨεRACK; n=17, 2.8 μg/kg/day) using an osmotic pump implanted subcutaneously (FIG. 1).
The osmotic pumps were replaced every two weeks, but were discontinued after the age of 17 weeks because half of the HS-control rats died by that age. Additional groups were treated with εV1-2 (using the Alzet pump) together with ARB (n=12) or with ARB alone (n=13) from 11 to 19 weeks of age (FIG. 6). Survival rate, fractional shortening and blood pressure were evaluated in these groups. Systolic blood pressure was measured by the tail-cuff method (BP-2000 Blood Pressure Analysis System, Visitech Systems, Inc), and fractional shortening was measured by transthoracic echocardiography (Vivid 7, GE). Additional control Dahl-high-salt rats were treated with TAT47-57 carrier peptide between 11 to 17 weeks or between 15 to 17 weeks, with vehicle for ARB (0.5% carboxymethylcellulose) or were left untreated and evaluated for survival rate, cardiac function and blood pressure.

In data set [3] the test system is Dahl salt-sensitive rats. Described as above. In kind it is in vivo. The conditions noted are these: age of 11, 13, 15 and 17 weeks; β peptide study.
Setting [4] is: 17 weeks of age, high-salt rats, εV1-2 and Olm treated 11 to 17 weeks, ΨεR 15 to 17 weeks.
The mark [5] stands for this setting: 24 weeks of age, treated 11 to 19 weeks of age.

Regarding `CCCc1nc(C(C)(C)O)c(C(=O)O)n1Cc1ccc(-c2ccccc2-c2nnn[nH]2)cc1` [Olm, olmesartan], the “number of genes with expression modified by this treatment but not the other” value in the data set on 92 genes was 15 genes. Moreover, the “reduction of fibrosis in LV” value in the data set on Dahl salt-sensitive rats [1] (as compared with HS-control, 17-week-old rats, Masson's trichrome) is given as about 50%. Besides, the “Systolic Wall Stress” value with Dahl salt-sensitive rats [2] (17 weeks of age) was 50.7 ± 4.4 g/cm^2. In addition, in the data set on Dahl salt-sensitive rats [2] (setting [4]), the “EDD (LV end-diastolic diameter)” value came out at 7.3 ± 0.2 mm, the “ESD (LV end-systolic diameter)” value came to 3.1 ± 0.2 mm, the “FS (LV fractional shortening)” value stood at 58.4 ± 1.6 % and the “PWT (LV posterior wall thickness)” value stood at 1.5 ± 0.04 mm. In the data set on Dahl salt-sensitive rats [2] (setting [5]), the “EDD (LV end-diastolic diameter)” value came out at 7.9 ± 0.2 mm, the “ESD (LV end-systolic diameter)” value turned out to be 4.9 ± 0.5 mm, the “FS (LV fractional shortening)” value worked out at 38.3 ± 4.6% and the “PWT (LV posterior wall thickness)” value was 1.5 ± 0.03 mm. Further, in the data set on Dahl salt-sensitive rats [2] (24 weeks of age, treated 11 to 19 weeks), the “Systolic Wall Stress” value is listed as 105.8 ± 13.6 g/cm^2.
As to `CC[C@H](C)[C@H](NC(=O)[C@@H]1CCCN1C(=O)[C@H](C)NC(=O)[C@H](CC(=O)O)NC(=O)[C@H](Cc1c[nH]cn1)NC(=O)[C@@H](N)CSSC[C@H](N)C(=O)N[C@@H](Cc1ccc(O)cc1)C(=O)NCC(=O)N[C@@H](CCCNC(=N)N)C(=O)N[C@@H](CCCCN)C(=O)N[C@@H](CCCCN)C(=O)N[C@@H](CCCNC(=N)N)C(=O)N[C@@H](CCCNC(=N)N)C(=O)N[C@@H](CCC(N)=O)C(=O)N[C@@H](CCCNC(=N)N)C(=O)N[C@@H](CCCNC(=N)N)C(=O)N[C@@H](CCCNC(=N)N)C(=O)O)C(=O)NCC(=O)N[C@@H](Cc1ccc(O)cc1)C(=O)N[C@@H](CC(=O)O)C(=O)O` [ΨεR], the arterial stenosis result with Dahl salt-sensitive rats [1] (hypertensive rats, chronic treatment) is reported as “induced arterial stenosis”; in the data set on Dahl salt-sensitive rats [1] (normotensive Dahl salt-sensitive rats on a low-salt diet), “did not cause arterial stenosis”.
Consider “βIIV5-3: βIIV5-3 peptide inhibitor QEVIRN (SEQ ID NO: 3), from the V5 domain of βIIPKC (Synthetic peptide inhibitor)”, for which the “left ventricular weight to body weight ratio (LVW/BW)” value in the data set with Dahl salt-sensitive rats [2] (17-weeks old rats) is listed as “reduced”. The fractional shortening result in the data set on Dahl salt-sensitive rats [2] (at 17 weeks, vs TAT control, in words) is reported as “significantly reduced fractional shortening”. Further, the wall stress entry in the data set with Dahl salt-sensitive rats [2] (hypertensive rats, in words) was “reduces wall stress”. Also, the survival result in the data set with Dahl salt-sensitive rats [2] is on record as “prolonged survival significantly longer than treatment with the βIV5-3 peptide inhibitor”. For the same molecule, the systolic blood pressure entry with Dahl salt-sensitive rats [3] is “less than in the TAT or βIV5-3 peptide-treated animals”.
Regarding “βIV5-3: βIV5-3 PKC peptide inhibitor KLFIMN (SEQ ID NO: 2), from the V5 domain of βIPKC (Synthetic PKC peptide inhibitor)”, the survival entry in the data set with Dahl salt-sensitive rats [2] was “prolonged survival”.
